Six compounds from ChEMBL document CHEMBL1201862, “PubChem BioAssay data set” (2004) can be followed below.

Structures are written as SMILES. The source made the active and inactive calls.

A short description of experiment [1]: OVCAR-3 cell viability loss – plate reader, dry powder samples, PAX8 inhibitor project, dose response (AID 743044). In kind it is functional, cell-based.
Experiment [2] concerns the target Paired box protein Pax-8 (Homo sapiens, UniProt Q06710). The experiment is described as follows: PAX8 transcriptional activity inhibition in RMG-I – RMG-I cells, luciferase, cherry-pick, dose response (AID 687027).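 Further: luciferase reporter driven by Pax8 target thyroperoxidase promoter measured by SteadyGlo luminescence.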 In kind it is functional, cell-based.
Experiment [3] is described as follows: IGROV1 cell killing – plate reader, dry powder samples, PAX8 inhibitor project, dose response (AID 743043). It is filed as functional, cell-based. Conditions: IGROV-1.
Experiment [4] in a line: viability of PTEN-deleted HCT116 cells – cell-based, HCT116 PTEN knockout, dose response (AID 1047).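 Further: HCT116 colon tumor cells with PTEN knocked out; cells exposed to compound for 60 hours before readout; potency for loss of cell viability measured by luminescence.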 It is filed as functional.
A short description of experiment [5]: viability of HCT116 lacking mutant beta-catenin – cell-based, human colon tumor, dose response (AID 1045).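 Further: HCT116 colon tumor cells with beta catenin knocked out; cells exposed to compound for 60 hours.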 In kind it is functional.
A short description of experiment [6]: HGIII-sPLA2 enzyme inhibition potency – biochemical, QFRET, IC50, dose response (AID 743457).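 Further: green fluorescence rise as the enzyme cleaves BODIPY PC-A2 in liposomes.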
Experiment [7] has as its target T1, Streptokinase A (Streptococcus pyogenes serotype M1, UniProt P10520).
T1 sequence (P10520 whole entry): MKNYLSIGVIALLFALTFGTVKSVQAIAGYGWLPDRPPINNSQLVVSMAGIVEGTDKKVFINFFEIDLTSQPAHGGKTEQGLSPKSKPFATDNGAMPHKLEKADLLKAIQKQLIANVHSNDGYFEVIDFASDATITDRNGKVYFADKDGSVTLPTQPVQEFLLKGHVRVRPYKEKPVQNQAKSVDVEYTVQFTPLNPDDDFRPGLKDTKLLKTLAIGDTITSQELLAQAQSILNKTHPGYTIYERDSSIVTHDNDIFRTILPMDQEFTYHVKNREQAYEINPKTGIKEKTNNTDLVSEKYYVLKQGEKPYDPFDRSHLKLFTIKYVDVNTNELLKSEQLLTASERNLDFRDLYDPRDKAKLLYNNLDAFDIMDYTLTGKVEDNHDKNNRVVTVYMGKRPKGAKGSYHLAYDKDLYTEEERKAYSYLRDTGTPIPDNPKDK
Briefly: viability-normalized secreted streptokinase activity reduction – plasminogen activation absorbance, OD405, dose response (AID 1914).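 Further: secreted streptokinase activity via plasminogen activation per viability signal from cell pellet.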 It is filed as functional, Streptococcus pyogenes M1 GAS.

In experiment [8] the test system is Streptococcus. The experiment is described as follows: GAS UMAA2166 growth inhibition – luminescence, BacTiterGlo, counter-screen for streptokinase expression inhibitor project, dose response (AID 1915).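 Further: potency for reduction of bacterial viability or growth.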 In kind it is functional, organism-based. For orientation: The purpose of a counterscreen is to sort out artefacts and off-target activity.
Experiment [9] concerns the target Albumin (Bos taurus, UniProt P02769). The experiment is described as follows: Counterscreen for inhibitors of T-cell receptor (TCR)-CD3 interaction: Fluorescence-based biochemical high throughput dose response assay to identify inhibitors of T-cell receptor (TCR)-CD3 interaction using a TAMRA-labeled BSA probe. In kind it is functional.
The test system of experiment [10] is Streptococcus sp. 'group A'. Briefly: Streptococcus pyogenes SK(-)GAS viability under kanamycin – luminescence, BacTiterGlo, confirmation, counter-screen for streptokinase expression inhibitor project, dose response (AID 1900). In kind it is functional, organism-based.
The target of experiment [11] is T2, Histone-lysine N-methyltransferase NSD2 (Homo sapiens, UniProt O96028).
T2 sequence (O96028 whole entry): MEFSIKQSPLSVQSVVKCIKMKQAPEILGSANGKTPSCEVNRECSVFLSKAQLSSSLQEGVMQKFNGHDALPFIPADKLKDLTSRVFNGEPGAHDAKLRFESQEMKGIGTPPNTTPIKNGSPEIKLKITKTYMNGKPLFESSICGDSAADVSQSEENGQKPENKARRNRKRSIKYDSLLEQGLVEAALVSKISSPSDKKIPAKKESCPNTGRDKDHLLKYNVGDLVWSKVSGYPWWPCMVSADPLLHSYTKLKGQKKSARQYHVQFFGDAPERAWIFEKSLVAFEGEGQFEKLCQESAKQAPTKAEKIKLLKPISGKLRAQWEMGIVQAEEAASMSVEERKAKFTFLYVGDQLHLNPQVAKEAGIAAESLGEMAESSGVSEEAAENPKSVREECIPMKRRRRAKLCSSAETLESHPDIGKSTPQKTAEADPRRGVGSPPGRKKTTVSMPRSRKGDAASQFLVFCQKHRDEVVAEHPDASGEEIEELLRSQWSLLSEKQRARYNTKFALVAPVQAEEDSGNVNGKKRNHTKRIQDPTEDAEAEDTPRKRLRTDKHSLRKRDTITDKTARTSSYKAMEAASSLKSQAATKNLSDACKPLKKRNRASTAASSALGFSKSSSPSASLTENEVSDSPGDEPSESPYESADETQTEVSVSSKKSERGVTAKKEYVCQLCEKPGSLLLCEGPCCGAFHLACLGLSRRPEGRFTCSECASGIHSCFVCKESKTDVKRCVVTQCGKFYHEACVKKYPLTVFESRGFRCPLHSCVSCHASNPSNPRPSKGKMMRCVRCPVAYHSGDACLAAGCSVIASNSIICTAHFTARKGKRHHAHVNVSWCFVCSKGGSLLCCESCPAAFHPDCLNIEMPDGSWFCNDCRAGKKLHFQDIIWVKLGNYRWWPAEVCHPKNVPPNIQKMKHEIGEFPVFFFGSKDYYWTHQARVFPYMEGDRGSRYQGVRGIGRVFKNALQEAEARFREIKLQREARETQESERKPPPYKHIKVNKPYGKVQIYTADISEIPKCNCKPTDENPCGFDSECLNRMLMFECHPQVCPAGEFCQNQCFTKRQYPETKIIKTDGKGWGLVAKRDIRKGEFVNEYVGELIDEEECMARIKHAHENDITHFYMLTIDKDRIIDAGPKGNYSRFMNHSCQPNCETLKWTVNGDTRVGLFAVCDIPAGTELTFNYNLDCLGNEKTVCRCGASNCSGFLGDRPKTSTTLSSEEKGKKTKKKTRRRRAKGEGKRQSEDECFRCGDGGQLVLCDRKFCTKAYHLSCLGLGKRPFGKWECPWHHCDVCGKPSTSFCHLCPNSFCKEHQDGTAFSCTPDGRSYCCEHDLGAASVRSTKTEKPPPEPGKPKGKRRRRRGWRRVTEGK
It is filed as biochemical.

Experiment [12] is described as follows: blockers of bursicon-stimulated LGR2 cAMP reporter – cell-based, HEK293, CRE-luciferase reporter, cherry pick, set 2, dose response (AID 743343).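 Further: transfected cells were stimulated with diluted bursicon conditioned medium after compound addition.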 In kind it is functional.
Experiment [13] is described as follows: blockade of melanocortin 4 receptor signaling – cell-based, plate reader, cherry pick, counter-screen for LGR2 antagonist project, dose response (AID 743444).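 Further: transfected HEK 293 cells stimulated with alpha-MSH peptide; potency of inhibitors of the alpha-MSH evoked signal.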 It is filed as functional.
Experiment [14] can be described thus: toxicity toward HepG2 liver cells – cell-based, plate reader, cherry-pick, antagonist series, cytotoxicity control, dose response (AID 743416). It is filed as functional.
A short description of experiment [15]: A549 cell cytotoxicity, dose response, cytotoxicity control, plate reader, cherry-pick, antagonist series (AID 743412). It is filed as functional, cell-based.

Albumin, sequence (P02769 whole entry): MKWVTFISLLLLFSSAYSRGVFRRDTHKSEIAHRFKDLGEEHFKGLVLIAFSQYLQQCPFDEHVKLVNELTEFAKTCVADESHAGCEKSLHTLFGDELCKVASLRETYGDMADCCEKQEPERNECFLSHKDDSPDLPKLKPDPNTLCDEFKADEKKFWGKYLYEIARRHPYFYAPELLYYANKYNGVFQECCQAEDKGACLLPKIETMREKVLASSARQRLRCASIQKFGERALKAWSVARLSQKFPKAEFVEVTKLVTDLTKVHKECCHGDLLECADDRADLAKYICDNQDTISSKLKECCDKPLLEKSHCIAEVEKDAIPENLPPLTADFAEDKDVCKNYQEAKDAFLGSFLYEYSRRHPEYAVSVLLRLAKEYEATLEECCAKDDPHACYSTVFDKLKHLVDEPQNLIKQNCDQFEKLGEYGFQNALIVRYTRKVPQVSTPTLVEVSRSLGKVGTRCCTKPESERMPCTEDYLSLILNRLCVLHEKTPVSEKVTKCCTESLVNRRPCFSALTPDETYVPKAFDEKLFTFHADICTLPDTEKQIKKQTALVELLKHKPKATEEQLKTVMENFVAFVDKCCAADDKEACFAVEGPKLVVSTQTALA
Paired box protein Pax-8, sequence (Q06710 whole entry): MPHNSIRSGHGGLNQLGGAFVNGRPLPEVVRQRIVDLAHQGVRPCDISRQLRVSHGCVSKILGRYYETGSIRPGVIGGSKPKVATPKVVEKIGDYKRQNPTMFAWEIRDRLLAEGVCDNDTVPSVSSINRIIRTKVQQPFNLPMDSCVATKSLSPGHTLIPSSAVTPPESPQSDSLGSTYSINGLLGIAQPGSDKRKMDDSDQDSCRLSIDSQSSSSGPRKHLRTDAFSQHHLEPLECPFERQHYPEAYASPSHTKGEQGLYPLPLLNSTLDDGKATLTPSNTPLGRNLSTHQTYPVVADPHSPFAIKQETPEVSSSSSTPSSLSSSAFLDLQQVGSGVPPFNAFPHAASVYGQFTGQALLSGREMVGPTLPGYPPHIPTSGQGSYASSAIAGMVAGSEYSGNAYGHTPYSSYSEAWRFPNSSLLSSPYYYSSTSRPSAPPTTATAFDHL

As to `C[C@H](CO)N1C[C@H](C)[C@@H](CN(C)Cc2ccccc2)Oc2ccc(NC(=O)Nc3ccc(C(F)(F)F)cc3)cc2CC1=O`, the values for the half-maximal activity concentration (AC50) in experiment [1], in experiment [2] and in [3] were 51.8 µM (active), 9.3 µM (active) and 46.6 µM (active), respectively.

Turning to `Cc1ccc(C)c(N2CCN(S(=O)(=O)c3c(C)noc3/C=C/N(C)C)CC2)c1`, the concentration for a half-maximal effect (EC50) in [4] was 26.5 µM (active); in experiment [5], 32.6 µM (active). Moreover, the IC50 in experiment [6] is > 122 µM (inactive).

`Cc1ccc(N=C(S)NNC(=O)c2ccccc2O)c(C)c1`: in [6], the IC50 was > 122 µM (inactive).

Consider `CCCCCC(=O)NC(=S)NC1C2CC3CC(C2)CC1C3` (stereo unspecified), for which the concentration for a half-maximal effect (EC50) in experiment [7] was 11.5 µM (active); in [8], 27.9 µM (active); in experiment [10], 3.42 µM (active). For the same compound, the IC50 in experiment [9] was > 94.1 µM (inactive).

With `O=C1Nc2c(Cl)cccc2C1=O`, the AC50 in [11] is 9.86 µM (active).

`N#C[C@@H]1[C@H](c2ccc(C#Cc3ccccc3F)cc2)[C@@H](CO)N1C(=O)C1CCCC1`: the AC50 in experiment [12] is 8.84 µM (active); in experiment [13], 6.34 µM (active); in experiment [14], 39.6 µM (active); in experiment [15] it was > 52 µM (inactive).

A word on the AC50: it is the midpoint of the concentration-response curve, whichever way the signal moves. The EC50 is the concentration at which the effect is half-maximal. The term IC50 denotes the midpoint of a concentration-inhibition curve.
